Source: patent US20090137572A1, “2-substituted-4-heteroaryl-pyrimidines useful for the treatment of proliferative disorders” (priority 2004, published 2009)

Legend:
Type in all cases: biochemical
CDK1-cyclin B = CDK1-cyclin B (Homo sapiens, UniProt P06493); assay: Kinase assay (radioactive phosphate incorporation), CDK1-cyclin B; settings: read-out: Kinase Inhibition pIC50 CDK1-cyclin B (converted)
Procedure, shortened: (§1)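 Inhibition was measured as transfer of radiolabelled phosphate from [γ-32P]-ATP (100 μM ATP, 15 mM MgCl2) onto polypeptide substrates by recombinant kinases or kinase complexes. Reactions ran at 30° C in MOPS/β-glycerophosphate buffer, pH 7.4, were stopped on ice and filtered before scintillation counting.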

CDK2-cyclin A = CDK2-cyclin A (Homo sapiens, UniProt P24941); assay: Kinase assay (radioactive phosphate incorporation), CDK2-cyclin A; settings: read-out: Kinase Inhibition pIC50 CDK2-cyclin A (converted)
Procedure, shortened: as §1

CDK2-cycline E = CDK2-cycline E (Homo sapiens, UniProt P24941); assay: Kinase assay (radioactive phosphate incorporation), CDK2-cyclin E; settings: read-out: Kinase Inhibition pIC50 CDK2-cycline E (converted)
Procedure, shortened: as §1

CDK4-cyclin D1 = CDK4-cyclin D1 (Homo sapiens, UniProt P11802); assay: Kinase assay (radioactive phosphate incorporation), CDK4-cyclin D1; settings: read-out: Kinase Inhibition pIC50 CDK4-cyclin D1 (converted)
Procedure, shortened: as §1

CDK7/cyclin H = CDK7/cyclin H (Homo sapiens, UniProt P50613); assay: CDK 7 assay (CTD peptide substrate); settings: read-out: Kinase Inhibition pIC50 CDK7-cyclin H (converted)
Procedure, shortened: (§2)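 Radiometric filter-binding read-out: 32P transferred from 100 μM [γ-32P]ATP to biotinyl-(YSPTSPS)4 CTD peptide. Enzyme 0.5-2 μg recombinant human complex; 20 mM MOPS pH 7.2, 15 mM MgCl2, vanadate, DTT; 45 min, 30° C; avidin bound, P81 plate washed, counted.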

CDK9/cyclin T1 = CDK9/cyclin T1 (Homo sapiens, UniProt P50750); assay: CDK 9 assay (CTD peptide substrate); settings: read-out: Kinase Inhibition pIC50 CDK9-cyclin T1 (converted)
Procedure, shortened: as §2

GSK3b = GSK3b (Homo sapiens, UniProt P49841); assay: Kinase assay (radioactive phosphate incorporation), GSK-3b; settings: read-out: Kinase Inhibition pIC50 GSK-3b (converted)
Procedure, shortened: as §1

[1] = biological target: T1, Flt3 (FMS-like tyrosine kinase-3) (Homo sapiens, UniProt P36888); assay: Kinase assay (radioactive phosphate incorporation), Flt3; settings: pIC50 is -log(IC50, M), read-out: Kinase Inhibition pIC50 Flt3 (converted)
T1 sequence (P36888 27-993): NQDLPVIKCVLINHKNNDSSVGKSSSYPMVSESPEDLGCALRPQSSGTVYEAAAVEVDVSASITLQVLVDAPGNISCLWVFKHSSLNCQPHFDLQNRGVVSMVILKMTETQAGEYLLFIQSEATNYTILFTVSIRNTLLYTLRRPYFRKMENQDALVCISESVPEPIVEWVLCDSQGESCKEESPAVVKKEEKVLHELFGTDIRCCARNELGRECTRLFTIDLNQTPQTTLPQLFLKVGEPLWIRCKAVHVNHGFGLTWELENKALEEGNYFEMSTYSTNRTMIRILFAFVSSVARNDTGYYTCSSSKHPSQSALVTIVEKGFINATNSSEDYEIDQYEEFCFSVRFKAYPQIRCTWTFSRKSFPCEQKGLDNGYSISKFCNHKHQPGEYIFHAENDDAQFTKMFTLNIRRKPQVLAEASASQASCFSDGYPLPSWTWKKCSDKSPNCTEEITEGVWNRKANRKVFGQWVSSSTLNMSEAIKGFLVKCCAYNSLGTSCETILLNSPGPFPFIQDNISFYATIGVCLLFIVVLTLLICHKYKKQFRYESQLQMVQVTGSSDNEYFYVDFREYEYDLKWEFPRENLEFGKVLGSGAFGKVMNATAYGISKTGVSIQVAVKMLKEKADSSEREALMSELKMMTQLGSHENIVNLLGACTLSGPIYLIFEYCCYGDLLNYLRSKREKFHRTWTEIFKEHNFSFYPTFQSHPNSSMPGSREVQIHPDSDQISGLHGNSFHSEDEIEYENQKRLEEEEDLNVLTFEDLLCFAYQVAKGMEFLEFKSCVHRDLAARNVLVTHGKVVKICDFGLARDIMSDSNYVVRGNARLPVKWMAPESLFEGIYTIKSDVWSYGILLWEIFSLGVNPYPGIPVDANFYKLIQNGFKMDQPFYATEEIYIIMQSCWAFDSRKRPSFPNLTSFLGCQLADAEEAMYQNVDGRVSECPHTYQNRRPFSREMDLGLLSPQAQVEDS
Procedure, shortened: as §1

Aurora A kinase = biological target: T2, Aurora A kinase (Homo sapiens, UniProt O14965); assay: Aurora-A (human) kinase assay (Kemptide substrate); settings: pIC50 is -log(IC50, M); 15 μM ATP; read-out: Kinase Inhibition pIC50 Aurora A kinase (converted)
T2 construct: purchased
T2 sequence (O14965 1-403): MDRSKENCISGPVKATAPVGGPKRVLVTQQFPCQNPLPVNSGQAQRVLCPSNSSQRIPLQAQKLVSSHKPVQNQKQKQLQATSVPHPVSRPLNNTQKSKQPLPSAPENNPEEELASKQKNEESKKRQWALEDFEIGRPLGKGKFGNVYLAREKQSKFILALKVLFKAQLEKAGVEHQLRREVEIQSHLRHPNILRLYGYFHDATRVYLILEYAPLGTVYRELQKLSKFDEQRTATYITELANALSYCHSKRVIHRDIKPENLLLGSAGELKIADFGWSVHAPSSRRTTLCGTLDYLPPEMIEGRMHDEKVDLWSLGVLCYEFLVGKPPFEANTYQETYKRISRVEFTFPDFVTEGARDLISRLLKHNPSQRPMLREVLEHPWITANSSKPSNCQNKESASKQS
Procedure, shortened: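 Kemptide (LRRASLG, 200 μM) phosphorylation by 5-10 ng commercial aurora-A measured as [γ-33P] incorporation at 15 μM ATP with 10 mM Mg acetate, pH 7.0 MOPS buffer. Reaction ran 40 min at room temperature; acid-stopped, captured on P81 filters, scintillation read.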

Chain of CDK1-cyclin B (P06493 whole entry): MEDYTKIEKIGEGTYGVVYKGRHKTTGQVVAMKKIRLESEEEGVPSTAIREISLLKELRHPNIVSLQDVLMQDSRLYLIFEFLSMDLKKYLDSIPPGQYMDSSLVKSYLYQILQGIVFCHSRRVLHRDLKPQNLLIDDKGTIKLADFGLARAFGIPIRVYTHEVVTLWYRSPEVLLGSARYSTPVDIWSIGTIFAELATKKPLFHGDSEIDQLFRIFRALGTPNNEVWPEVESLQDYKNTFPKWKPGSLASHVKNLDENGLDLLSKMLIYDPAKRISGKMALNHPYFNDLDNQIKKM
Chain of CDK1-cyclin B (P14635 whole entry partner): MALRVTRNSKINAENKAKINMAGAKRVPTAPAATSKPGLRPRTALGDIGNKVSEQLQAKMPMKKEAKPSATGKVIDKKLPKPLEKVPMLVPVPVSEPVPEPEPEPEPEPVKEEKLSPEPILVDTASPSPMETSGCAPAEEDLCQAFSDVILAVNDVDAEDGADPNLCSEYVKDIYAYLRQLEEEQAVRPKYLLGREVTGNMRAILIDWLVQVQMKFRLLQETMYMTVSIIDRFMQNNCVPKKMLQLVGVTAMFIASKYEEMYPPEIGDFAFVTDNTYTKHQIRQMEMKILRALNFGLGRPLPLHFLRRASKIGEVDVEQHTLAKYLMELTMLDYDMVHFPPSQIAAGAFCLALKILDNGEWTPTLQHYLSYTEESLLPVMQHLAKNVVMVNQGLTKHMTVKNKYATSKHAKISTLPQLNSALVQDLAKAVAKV
Chain of CDK4-cyclin D1 (P11802 whole entry): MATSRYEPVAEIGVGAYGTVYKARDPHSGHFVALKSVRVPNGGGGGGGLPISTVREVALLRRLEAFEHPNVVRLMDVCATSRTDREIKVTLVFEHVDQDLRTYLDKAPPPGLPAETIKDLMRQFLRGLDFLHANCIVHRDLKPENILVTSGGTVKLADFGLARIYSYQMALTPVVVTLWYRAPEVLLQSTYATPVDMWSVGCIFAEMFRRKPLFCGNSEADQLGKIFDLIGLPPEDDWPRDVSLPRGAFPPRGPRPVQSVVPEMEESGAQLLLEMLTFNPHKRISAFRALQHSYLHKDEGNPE
Chain of CDK4-cyclin D1 (P24385 whole entry partner): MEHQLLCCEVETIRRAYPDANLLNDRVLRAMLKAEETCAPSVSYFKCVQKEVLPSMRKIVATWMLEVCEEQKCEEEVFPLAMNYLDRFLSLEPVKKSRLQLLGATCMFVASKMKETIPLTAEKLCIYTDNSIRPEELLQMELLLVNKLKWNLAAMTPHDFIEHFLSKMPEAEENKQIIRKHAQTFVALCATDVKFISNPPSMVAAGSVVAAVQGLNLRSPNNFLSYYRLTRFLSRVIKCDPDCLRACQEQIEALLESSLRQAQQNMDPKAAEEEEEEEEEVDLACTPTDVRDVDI
Chain of CDK9/cyclin T1 (P50750 whole entry): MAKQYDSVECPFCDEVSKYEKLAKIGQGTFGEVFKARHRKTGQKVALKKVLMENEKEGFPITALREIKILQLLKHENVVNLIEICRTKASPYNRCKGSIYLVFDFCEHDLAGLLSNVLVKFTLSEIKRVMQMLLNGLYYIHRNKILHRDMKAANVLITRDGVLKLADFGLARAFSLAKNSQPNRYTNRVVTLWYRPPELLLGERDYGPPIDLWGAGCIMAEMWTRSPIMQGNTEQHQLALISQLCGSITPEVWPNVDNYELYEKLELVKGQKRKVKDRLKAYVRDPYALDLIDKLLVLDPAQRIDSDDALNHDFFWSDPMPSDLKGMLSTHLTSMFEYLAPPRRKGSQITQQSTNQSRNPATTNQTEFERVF
Chain of CDK9/cyclin T1 (O60563 whole entry partner): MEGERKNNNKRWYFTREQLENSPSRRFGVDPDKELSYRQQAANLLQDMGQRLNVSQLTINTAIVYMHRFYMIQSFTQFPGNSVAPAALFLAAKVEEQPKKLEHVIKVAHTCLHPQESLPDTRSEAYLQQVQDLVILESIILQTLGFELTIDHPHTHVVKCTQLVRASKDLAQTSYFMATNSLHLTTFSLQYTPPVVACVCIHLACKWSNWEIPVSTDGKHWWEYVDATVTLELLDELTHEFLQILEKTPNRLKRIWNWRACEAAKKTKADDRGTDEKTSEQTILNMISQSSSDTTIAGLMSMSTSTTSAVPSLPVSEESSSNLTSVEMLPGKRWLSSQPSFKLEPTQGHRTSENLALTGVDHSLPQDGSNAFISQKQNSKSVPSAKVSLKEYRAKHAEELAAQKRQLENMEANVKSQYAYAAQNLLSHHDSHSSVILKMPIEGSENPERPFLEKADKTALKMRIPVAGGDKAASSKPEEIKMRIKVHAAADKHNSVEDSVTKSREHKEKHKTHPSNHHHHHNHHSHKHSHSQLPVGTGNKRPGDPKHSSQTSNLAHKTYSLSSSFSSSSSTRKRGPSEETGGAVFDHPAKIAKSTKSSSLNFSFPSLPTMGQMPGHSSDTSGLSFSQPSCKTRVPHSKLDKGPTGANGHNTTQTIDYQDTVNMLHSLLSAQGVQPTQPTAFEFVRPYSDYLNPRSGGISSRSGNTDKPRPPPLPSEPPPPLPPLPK
Chain of CDK7/cyclin H (P50613 whole entry): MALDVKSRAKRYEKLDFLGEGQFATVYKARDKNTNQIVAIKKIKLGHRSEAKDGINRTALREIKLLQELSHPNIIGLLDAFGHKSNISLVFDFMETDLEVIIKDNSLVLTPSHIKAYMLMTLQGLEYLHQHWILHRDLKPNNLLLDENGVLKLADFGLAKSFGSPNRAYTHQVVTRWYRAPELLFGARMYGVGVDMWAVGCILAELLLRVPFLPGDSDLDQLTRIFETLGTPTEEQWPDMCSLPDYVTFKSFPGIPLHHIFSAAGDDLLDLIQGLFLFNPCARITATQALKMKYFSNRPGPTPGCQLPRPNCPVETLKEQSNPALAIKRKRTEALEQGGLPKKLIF
Chain of CDK7/cyclin H (P51946 whole entry partner): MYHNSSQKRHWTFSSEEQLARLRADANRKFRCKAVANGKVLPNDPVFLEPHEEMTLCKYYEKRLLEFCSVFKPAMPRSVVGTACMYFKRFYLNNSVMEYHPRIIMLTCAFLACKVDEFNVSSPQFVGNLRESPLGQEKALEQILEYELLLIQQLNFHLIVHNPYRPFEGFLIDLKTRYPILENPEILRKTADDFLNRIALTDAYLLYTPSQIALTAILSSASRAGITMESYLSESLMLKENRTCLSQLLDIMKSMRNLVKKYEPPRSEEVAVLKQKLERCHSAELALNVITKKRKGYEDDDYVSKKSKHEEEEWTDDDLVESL
Chain of GSK3b (P49841 whole entry, species assumed): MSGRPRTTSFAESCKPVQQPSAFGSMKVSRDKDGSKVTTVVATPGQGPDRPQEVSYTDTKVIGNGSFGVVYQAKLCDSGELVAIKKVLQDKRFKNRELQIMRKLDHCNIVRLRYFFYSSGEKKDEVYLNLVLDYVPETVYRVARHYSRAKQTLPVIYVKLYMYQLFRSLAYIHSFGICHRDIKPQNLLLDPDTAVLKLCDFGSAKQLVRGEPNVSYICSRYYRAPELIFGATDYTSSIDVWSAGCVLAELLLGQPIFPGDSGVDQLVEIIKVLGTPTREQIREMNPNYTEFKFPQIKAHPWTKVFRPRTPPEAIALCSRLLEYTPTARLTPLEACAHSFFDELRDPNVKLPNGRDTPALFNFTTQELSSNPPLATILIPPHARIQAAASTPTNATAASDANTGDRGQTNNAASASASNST

IC50 (CDK1-cyclin B) [nM]	IC50 (CDK2-cyclin A) [nM]	IC50 (CDK2-cycline E) [nM]	IC50 (CDK4-cyclin D1) [nM]	IC50 (CDK7/cyclin H) [nM]	IC50 (CDK9/cyclin T1) [nM]	IC50 (GSK3b) [nM]	IC50 [1] [nM]	IC50 (Aurora A kinase) [nM]	Compound
1260	1000	251	2510	794	126	316	1000	79.4	CNS(=O)(=O)c1cccc(Nc2nccc(-c3sc(N)nc3C)n2)c1 [Compound 26, 3-[4-(2-Amino-4-methyl-thiazol-5-yl)-pyrimidin-2-ylamino]-N-methyl-benzenesulfonamide]
2000	1000	100	794	398	20	316	200	15.8	CCNS(=O)(=O)c1cccc(Nc2nccc(-c3sc(N)nc3C)n2)c1 [Compound 30, 3-[4-(2-Amino-4-methyl-thiazol-5-yl)-pyrimidin-2-ylamino]-N-ethyl-benzenesulfonamide]
2000	2000	398	158	158	100	501	200	158	CCNc1nc(C)c(-c2ccnc(Nc3cccc(S(=O)(=O)NCCOC)c3)n2)s1 [Compound 53, 3-[4-(2-Ethylamino-4-methyl-thiazol-5-yl)-pyrimidin-2-ylamino]-N-(2-methoxy-ethyl)-benzenesulfonamide]
1000	1000	126	126	398	25.1	316	158	100	Cc1nc(N)sc1-c1ccnc(Nc2cccc(S(=O)(=O)NCCO)c2)n1 [Compound 77, 3-[4-(2-Amino-4-methyl-thiazol-5-yl)-pyrimidin-2-ylamino]-N-(2-hydroxy-ethyl)-benzenesulfonamide]

The remaining lines, values behind:

Compound	IC50 (CDK1-cyclin B) [nM]	IC50 (CDK2-cyclin A) [nM]	IC50 (CDK2-cycline E) [nM]	IC50 (CDK4-cyclin D1) [nM]	IC50 (CDK7/cyclin H) [nM]	IC50 (CDK9/cyclin T1) [nM]	IC50 (GSK3b) [nM]	IC50 [1] [nM]	IC50 (Aurora A kinase) [nM]
CCNc1nc(C)c(-c2ccnc(Nc3cccc(CNS(C)(=O)=O)c3)n2)s1 [Compound 5, N-{3-[4-(2-Ethylamino-4-methyl-thiazol-5-yl)-pyrimidin-2-ylamino]-benzyl}-methanesulfonamide]	1260	200	158	158	251	12.6	200	50.1	31.6
Cc1nc(C)c(-c2ccnc(Nc3cccc(N4CCNCC4)c3)n2)s1 [Compound 8, [4-(2,4-Dimethyl-thiazol-5-yl)-pyrimidin-2-yl]-(3-piperazin-1-yl-phenyl)-amine]	5010	5010	2000	2510	2000	501	12600	50.1	39800
Cc1nc(N)sc1-c1ccnc(Nc2cccc(CNS(=O)(=O)C(F)(F)F)c2)n1 [Compound 12, N-{3-[4-(2-Amino-4-methyl-thiazol-5-yl)-pyrimidin-2-ylamino]-benzyl}-C,C,C-trifluoro-methanesulfonamide]	631	501	63.1	631	200	100	2000	794	251
CC(=O)NCc1ccc(Nc2nccc(-c3sc(C)nc3C)n2)cc1 [Compound 15, N-{4-[4-(2,4-Dimethyl-thiazol-5-yl)-pyrimidin-2-ylamino]-benzyl}-acetamide]	501	1000	200	631	1580	794	1000	501	39.8
CC(=O)NCc1ccc(Nc2nccc(-c3sc(N)nc3C)n2)cc1 [Compound 16, N-{4-[4-(2-Amino-4-methyl-thiazol-5-yl)-pyrimidin-2-ylamino]-benzyl}-acetamide]	1000	1260	158	501	2000	251	1000	158	79.4
CCNc1nc(C)c(-c2ccnc(Nc3ccc(S(C)(=O)=O)cc3)n2)s1 [Compound 17, [4-(2-Ethylamino-4-methyl-thiazol-5-yl)-pyrimidin-2-yl]-(4-methanesulfonyl-phenyl)-amine]	1000	39.8	50.1	1580	2510	200	2000	251	39.8
CNc1nc(C)c(-c2ccnc(Nc3ccc(S(C)(=O)=O)cc3)n2)s1 [Compound 20, (4-Methanesulfonyl-phenyl)-[4-(4-methyl-2-methylamino-thiazol-5-yl)-pyrimidin-2-yl]-amine]	158	15.8	2.51	2510	3980	63.1	316	316	
CNc1nc(C)c(-c2ccnc(Nc3cccc(S(=O)(=O)NC)c3)n2)s1 [Compound 21, N-Methyl-3-[4-(4-methyl-2-methylamino-thiazol-5-yl)-pyrimidin-2-ylamino]-benzenesulfonamide]	1000	794	63.1	39.8	251	12.6	251	158	79.4
CCNc1nc(C)c(-c2ccnc(Nc3ccc(S(N)(=O)=O)cc3)n2)s1 [Compound 35, 4-[4-(2-Ethylamino-4-methyl-thiazol-5-yl)-pyrimidin-2-ylamino]-benzenesulfonamide]	31.6	6.31	3.98	20	79.4	10	631	63.1	63.1
Cc1nc(N)sc1-c1ccnc(Nc2ccc(S(=O)(=O)NCCO)cc2)n1 [Compound 68, 4-[4-(2-Amino-4-methyl-thiazol-5-yl)-pyrimidin-2-ylamino]-N-(2-hydroxy-ethyl)-benzenesulfonamide]	20	20	10	1580	2000	200	1260	200	63.1
